According to patent US12077503B2, “Substituted cyclic amides and their use as herbicides” (FMC CORPORATION, priority 2015, dated 2024):

| SMILES | melting point [°C] |
| --- | --- |
| COc1cccc([C@H]2CNC(=O)[C@@H]2C(=O)Nc2cccc(F)c2F)c1F [Compound 1061] | 161 to 165 |
| O=C1NC[C@H](c2ccc(C(F)(F)F)cn2)[C@H]1C(=O)Nc1ccc(F)c(F)c1F [Compound 1105] | 173 to 176 |
| C=C(C)c1ccc([C@H]2CN(C)C(=O)[C@@H]2C(=O)Nc2cccc(F)c2C)cc1 [Compound 1150] | 137 to 141 |
| CN1C[C@H](c2cc(Cl)cc(Cl)c2)[C@@H](C(=O)Nc2cccc(F)c2F)C1=O [Compound 1270] | 88 to 92 |

Results, then the compound that gave them:

| melting point [°C] | SMILES |
| --- | --- |
| 136 to 140 | O=C1NC[C@H](c2cc(Cl)cc(Cl)c2)[C@H]1C(=O)Nc1cccc(F)c1F [Compound 1273] |
| 103 to 107 | COc1ccc([C@H]2CN(C)C(=O)[C@@H]2C(=O)Nc2ccccc2F)cc1 [Compound 1342] |
